Measured values as given in patent US9498467B2, “Treatment of chronic neutrophilic leukemia (CNL) and atypical chronic myeloid leukemia (aCML) by inhibitors of JAK1” (Incyte Corporation, priority 2014, dated 2016).

Columns and labels:
[1] = target: T1, human JAK1 (a.a. 837-1142) (Homo sapiens, UniProt P23458); assay: In vitro JAK kinase assay (HTRF), JAK1; type: biochemical; details: 1 mM ATP
T1 construct: human JAK1 (a.a. 837-1142); made in house; host or cells: insect cells (baculovirus)

[2] = target: T2, human JAK2 (a.a. 828-1132) (Homo sapiens, UniProt O60674); assay: In vitro JAK kinase assay (HTRF), JAK2; type: biochemical; details: ratio of IC50s at 1 mM ATP
T2 construct: JAK2 (a.a. 828-1132); made in house; host or cells: insect cells (baculovirus)
T2 sequence (O60674 828-1132): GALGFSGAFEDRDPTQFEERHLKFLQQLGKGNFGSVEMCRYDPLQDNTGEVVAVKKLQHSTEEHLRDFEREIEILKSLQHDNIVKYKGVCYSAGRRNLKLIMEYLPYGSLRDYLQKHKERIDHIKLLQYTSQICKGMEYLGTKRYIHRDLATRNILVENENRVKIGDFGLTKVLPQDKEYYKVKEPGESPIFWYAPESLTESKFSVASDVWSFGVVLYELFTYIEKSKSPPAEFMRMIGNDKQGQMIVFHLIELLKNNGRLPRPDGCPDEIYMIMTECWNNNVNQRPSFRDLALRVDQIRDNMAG

T1 sequence (P23458 849-1154): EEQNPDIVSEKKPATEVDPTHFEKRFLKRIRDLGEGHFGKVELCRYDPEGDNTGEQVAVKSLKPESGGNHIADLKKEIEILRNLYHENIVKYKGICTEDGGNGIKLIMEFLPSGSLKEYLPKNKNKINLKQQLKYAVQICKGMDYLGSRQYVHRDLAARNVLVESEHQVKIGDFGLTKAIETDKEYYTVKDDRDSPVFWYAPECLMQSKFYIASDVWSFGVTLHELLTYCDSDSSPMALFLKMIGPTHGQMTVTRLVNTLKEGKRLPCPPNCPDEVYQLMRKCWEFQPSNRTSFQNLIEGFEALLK

C[C@H](NC(=O)c1cc(F)c(N2CC(CC#N)(n3cc(-c4ncnc5[nH]ccc45)cn3)C2)cc1F)C(F)(F)F [Compound 16, 4-{3-(cyanomethyl)-3-[4-(7H-pyrrolo[2,3-d]pyrimidin-4-yl)-1H-pyrazol-1-yl]azetidin-1-yl}-2,5-difluoro-N-[(1S)-2,2,2-trifluoro-1-methylethyl]benzamide]
IC50 [1]: < 10 nM | JAK2/JAK1 [2]: >10

N#CCC1(n2cc(-c3ncnc4[nH]ccc34)cn2)CN(C2CCN(C(=O)Nc3ccc(F)cc3C(F)(F)F)CC2)C1 [Compound 8, 4-{3-(Cyanomethyl)-3-[4-(7H-pyrrolo[2,3-d]pyrimidin-4-yl)-1H-pyrazol-1-yl]azetidin-1-yl}-N-[4-fluoro-2-(trifluoromethyl)phenyl] piperidine-1-carboxamide]
IC50 [1]: < 10 nM | JAK2/JAK1 [2]: >10

N#CCC(CN1CCN(C(=O)c2ccc(C#N)cc2F)CC1)n1ccc(-c2ncnc3[nH]ccc23)c1 (centres unmarked) [Compound 6, 4-[(4-{3-cyano-2-[3-(7H-pyrrolo[2,3-d]pyrimidin-4-yl)-1H-pyrrol-1-yl]propyl}piperazin-1-yl)carbonyl]-3-fluorobenzonitrile]
IC50 [1]: < 10 nM | JAK2/JAK1 [2]: >10

N#CCC(CN1CCN(C(=O)c2ccc(C#N)cc2F)CC1)n1cc(-c2ncnc3[nH]ccc23)cn1 (centres unmarked) [Compound 5]
IC50 [1]: < 10 nM | JAK2/JAK1 [2]: >10

N#CCC1(n2cc(-c3ncnc4[nH]ccc34)cn2)CN([C@H]2CC[C@@H](Oc3cc(CN4CC[C@H](O)C4)cc(C(F)(F)F)n3)CC2)C1 [Compound 22, {1-(cis-4-{[4-{[(3S)-3-hydroxypyrrolidin-1-yl]methyl}-6-(trifluoromethyl)pyridin-2-yl]oxy}cyclohexyl)-3-[4-(7H-pyrrolo[2,3-d]pyrimidin-4-yl)-1H-pyrazol-1-yl]azetidin-3-yl}acetonitrile]
IC50 [1]: < 10 nM | JAK2/JAK1 [2]: >10

N#CCC(C1CCN(c2cccc(Cl)n2)C1)n1cc(-c2ncnc3[nH]ccc23)cn1 (single isomer, unassigned) [Compound 3, 3-[1-(6-chloropyridin-2-yl)pyrrolidin-3-yl]-3-[4-(7H-pyrrolo[2,3-d]pyrimidin-4-yl)-1H-pyrazol-1-yl]propanenitrile]
IC50 [1]: < 10 nM | JAK2/JAK1 [2]: >10

N#CCC1(n2cc(-c3ncnc4[nH]ccc34)cn2)CN(C2CCN(C(=O)c3ccnc(C(F)(F)F)n3)CC2)C1 [Compound 9, [3-[4-(7H-pyrrolo[2,3-d]pyrimidin-4-yl)-1H-pyrazol-1-yl]-1-(1-{[2-(trifluoromethyl)pyrimidin-4-yl]carbonyl}piperidin-4-yl)azetidin-3-yl]acetonitrile]
IC50 [1]: < 10 nM | JAK2/JAK1 [2]: >10

CCNCc1cc(O[C@H]2CC[C@@H](N3CC(CC#N)(n4cc(-c5ncnc6[nH]ccc56)cn4)C3)CC2)nc(C(F)(F)F)c1 [Compound 19, {1-(cis-4-{[4-[(ethylamino)methyl]-6-(trifluoromethyl)pyridin-2-yl]oxy}cyclohexyl)-3-[4-(7H-pyrrolo[2,3-d]pyrimidin-4-yl)-1H-pyrazol-1-yl]azetidin-3-yl}acetonitrile]
IC50 [1]: < 10 nM | JAK2/JAK1 [2]: >10

N#CC[C@]1(n2cc(-c3ncnc4[nH]ccc34)cn2)C[C@H](N2CCC(Oc3cc(CN4CCC[C@@H]4CO)cc(C(F)(F)F)n3)CC2)C1 [Compound 13, {trans-3-(4-{[4-{[(2R)-2-(hydroxymethyl)pyrrolidin-1-yl]methyl}-6-(trifluoromethyl)pyridin-2-yl]oxy}piperidin-1-yl)-1-[4-(7H-pyrrolo[2,3-d]pyrimidin-4-yl)-1H-pyrazol-1-yl]cyclobutyl} acetonitrile]
IC50 [1]: < 10 nM | JAK2/JAK1 [2]: >10

C[C@@H](O)CNCc1cc(OC2CCN([C@H]3C[C@](CC#N)(n4cc(-c5ncnc6[nH]ccc56)cn4)C3)CC2)nc(C(F)(F)F)c1 [Compound 24, {trans-3-(4-{[4-({[(2R)-2-hydroxypropyl]amino}methyl)-6-(trifluoromethyl)pyridin-2-yl]oxy}piperidin-1-yl)-1-[4-(7H-pyrrolo[2,3-d]pyrimidin-4-yl)-1H-pyrazol-1-yl]cyclobutyl} acetonitrile]
IC50 [1]: < 10 nM | JAK2/JAK1 [2]: >10
